{"source": "patent US4605514A", "about": "“Des-4-leucine-calcitonin” (Armour Pharmaceutical Company, priority 1984, dated 1986)", "system": "Rats", "test": "Biological assay of calcitonin analogs in vivo: reduction of serum calcium concentration vs synthetic salmon calcitonin standard, 2×2 parallel line assay", "conditions": "standard used in the assay; independently determined", "procedure": "Biological Assay Of Calcitonin Analogs In Vivo\nThe biological potency of des-4-leucine-salmon calcitonin was determined by comparing the reduction of serum calcium concentration which followed administration by graded doses of des-Leu^4 -SCT and synthetic salmon calcitonin standard. Rats were divided into four groups of seven animals, and each group was assigned at random to a dose of standard or test solution. Low and high doses were chosen from the linear portion of the dose-response curve. For the salmon calcitonin standard, the values were 0.7 and 2.1 ng. peptide/100 g. body weight (BW). This dose approximates 3 and […]/100 g. BW. Peptides were given by subcutaneous injection (0.2 ml/100 g. BW) and blood was withdrawn 1 hour later for serum calcium determination. Sera are processed and analyzed within two hours of collection. […]. Results were analyzed by a 2×2 parallel line assay [Gaddum, J. H., J. Pharm. Pharmacol., 6, 345 (1953)]. The standard salmon calcitonin used was independently determined to contain greater than 4,000 IU/mg. des-Leu^4 -SCT assayed at 5400 IU/mg.", "data": [{"smiles": "CC(C)C[C@H](NC(=O)[C@H](CCCCN)NC(=O)CNC(=O)[C@H](CC(C)C)NC(=O)[C@@H](NC(=O)[C@@H]1CSSC[C@H](N)C(=O)N[C@@H](CO)C(=O)N[C@@H](CC(N)=O)C(=O)N[C@@H](CC(C)C)C(=O)N[C@@H](CO)C(=O)N[C@@H]([C@@H](C)O)C(=O)N1)C(C)C)C(=O)N[C@@H](CO)C(=O)N[C@@H](CCC(N)=O)C(=O)N[C@@H](CCC(=O)O)C(=O)N[C@@H](CC(C)C)C(=O)N[C@@H](Cc1c[nH]cn1)C(=O)N[C@@H](CCCCN)C(=O)N[C@@H](CC(C)C)C(=O)N[C@@H](CCC(N)=O)C(=O)N[C@H](C(=O)N[C@@H](Cc1ccc(O)cc1)C(=O)N1CCC[C@H]1C(=O)N[C@@H](CCCNC(=N)N)C(=O)N[C@H](C(=O)N[C@@H](CC(N)=O)C(=O)N[C@H](C(=O)NCC(=O)N[C@@H](CO)C(=O)NCC(=O)N[C@H](C(=O)N1CCC[C@H]1C(N)=O)[C@@H](C)O)[C@@H](C)O)[C@@H](C)O)[C@@H](C)O", "note": "[standard salmon calcitonin, Salmon calcitonin]", "values": [{"measurement": "potency content of the standard salmon calcitonin", "result": "greater than 4,000 IU/mg"}]}]}
